Data: the supplement of paper PMC10307832

Key:
Experiment in all cases: relative viability (nuclei count vs DMSO), 5 days (fraction); higher = more cells survive
HOP-62 = system: HOP-62
Method in brief: (§1)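 Relative viability was taken as the ratio of nuclei in treated wells to nuclei in vehicle wells. Lung cancer cell lines in 1536-well plates received compounds by pin tool one day after seeding, either one drug alone or a fixed anchor-drug dose plus five library-drug doses (not always all listed) in √10 steps. Nuclei were counted on 4× images after 5 days of treatment, and values are medians of duplicate plates.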

ABC-1 = system: ABC-1
Method in brief: as §1

COR-L 105 = system: COR-L 105
Method in brief: as §1

NCI-H2126 = system: NCI-H2126
Method in brief: as §1

CAL-12T = system: CAL-12T
Method in brief: as §1

NCI-H2085 = system: NCI-H2085
Method in brief: as §1

NCI-H1755 = system: NCI-H1755
Method in brief: as §1

UMC-11 = system: UMC-11
Method in brief: as §1

NCI-H1915 = system: NCI-H1915
Method in brief: as §1

HCC-15 = system: HCC-15
Method in brief: as §1

ChaGo-K-1 = system: ChaGo-K-1
Method in brief: as §1

NCI-H3122 = system: NCI-H3122
Method in brief: as §1

NCI-H322M = system: NCI-H322M
Method in brief: as §1

NCI-H1975 = system: NCI-H1975
Method in brief: as §1

HCC-78 = system: HCC-78
Method in brief: as §1

NCI-H358 = system: NCI-H358
Method in brief: as §1

NCI-H441 = system: NCI-H441
Method in brief: as §1

NCI-H2023 = system: NCI-H2023
Method in brief: as §1

NCI-H1666 = system: NCI-H1666
Method in brief: as §1

LXF-289 = system: LXF-289
Method in brief: as §1

EMC-BAC-2 = system: EMC-BAC-2
Method in brief: as §1

EPLC-272H = system: EPLC-272H
Method in brief: as §1

## O=c1cc(-c2cccc3c2Sc2ccccc2S3)oc(N2CCOCC2)c1 + CC(=O)c1c(C)c2cnc(Nc3ccc(N4CCNCC4)cn3)nc2n(C2CCCC2)c1=O [Palbociclib] (partner 0.5 µM)
HOP-62; first compound 0.08 µM
  relative viability: 0.465
HOP-62; first compound 0.253 µM
  relative viability: 0.391
HOP-62; first compound 0.8 µM
  relative viability: 0.497
HOP-62; first compound 2.53 µM
  relative viability: 0.512
HOP-62; first compound 8 µM
  relative viability: 0.54
ABC-1; first compound 0.08 µM
  relative viability: 1.04
ABC-1; first compound 0.253 µM
  relative viability: 0.836
ABC-1; first compound 0.8 µM
  relative viability: 0.474
ABC-1; first compound 2.53 µM
  relative viability: 0.767
ABC-1; first compound 8 µM
  relative viability: 0.674
COR-L 105; first compound 0.08 µM
  relative viability: 0.349
COR-L 105; first compound 0.253 µM
  relative viability: 0.319
COR-L 105; first compound 0.8 µM
  relative viability: 0.385
COR-L 105; first compound 2.53 µM
  relative viability: 0.413
COR-L 105; first compound 8 µM
  relative viability: 0.416
NCI-H2126; first compound 0.08 µM
  relative viability: 0.393
NCI-H2126; first compound 0.253 µM
  relative viability: 0.361
NCI-H2126; first compound 0.8 µM
  relative viability: 0.357
NCI-H2126; first compound 2.53 µM
  relative viability: 0.358
NCI-H2126; first compound 8 µM
  relative viability: 0.357
CAL-12T; first compound 0.08 µM
  relative viability: 0.369
CAL-12T; first compound 0.253 µM
  relative viability: 0.57
CAL-12T; first compound 0.8 µM
  relative viability: 0.498
CAL-12T; first compound 2.53 µM
  relative viability: 0.404
CAL-12T; first compound 8 µM
  relative viability: 0.292
NCI-H2085; first compound 0.08 µM
  relative viability: 0.431
NCI-H2085; first compound 0.253 µM
  relative viability: 0.508
NCI-H2085; first compound 0.8 µM
  relative viability: 0.471
NCI-H2085; first compound 2.53 µM
  relative viability: 0.467
NCI-H2085; first compound 8 µM
  relative viability: 0.412
NCI-H1755; first compound 0.08 µM
  relative viability: 0.436
NCI-H1755; first compound 0.253 µM
  relative viability: 0.464
NCI-H1755; first compound 0.8 µM
  relative viability: 0.463
NCI-H1755; first compound 2.53 µM
  relative viability: 0.383
NCI-H1755; first compound 8 µM
  relative viability: 0.409
UMC-11; first compound 0.08 µM
  relative viability: 0.338
UMC-11; first compound 0.253 µM
  relative viability: 0.328
UMC-11; first compound 0.8 µM
  relative viability: 0.346
UMC-11; first compound 2.53 µM
  relative viability: 0.326
UMC-11; first compound 8 µM
  relative viability: 0.345
NCI-H1915; first compound 0.08 µM
  relative viability: 0.549
NCI-H1915; first compound 0.253 µM
  relative viability: 0.527
NCI-H1915; first compound 0.8 µM
  relative viability: 0.541
NCI-H1915; first compound 2.53 µM
  relative viability: 0.509
NCI-H1915; first compound 8 µM
  relative viability: 0.497
HCC-15; first compound 0.08 µM
  relative viability: 0.796
HCC-15; first compound 0.253 µM
  relative viability: 0.778
HCC-15; first compound 0.8 µM
  relative viability: 0.79
HCC-15; first compound 2.53 µM
  relative viability: 0.695
HCC-15; first compound 8 µM
  relative viability: 0.636
ChaGo-K-1; first compound 0.08 µM
  relative viability: 0.942
ChaGo-K-1; first compound 0.253 µM
  relative viability: 1.12
ChaGo-K-1; first compound 0.8 µM
  relative viability: 0.842
ChaGo-K-1; first compound 2.53 µM
  relative viability: 0.899
ChaGo-K-1; first compound 8 µM
  relative viability: 1.09
NCI-H3122; first compound 0.08 µM
  relative viability: 0.169
NCI-H3122; first compound 0.253 µM
  relative viability: 0.2
NCI-H3122; first compound 0.8 µM
  relative viability: 0.208
NCI-H3122; first compound 2.53 µM
  relative viability: 0.188
NCI-H3122; first compound 8 µM
  relative viability: 0.192
NCI-H322M; first compound 0.08 µM
  relative viability: 0.453
NCI-H322M; first compound 0.253 µM
  relative viability: 0.474
NCI-H322M; first compound 0.8 µM
  relative viability: 0.502
NCI-H322M; first compound 2.53 µM
  relative viability: 0.449
NCI-H322M; first compound 8 µM
  relative viability: 0.475
NCI-H1975; first compound 0.08 µM
  relative viability: 0.623
NCI-H1975; first compound 0.253 µM
  relative viability: 0.863
NCI-H1975; first compound 0.8 µM
  relative viability: 0.465
NCI-H1975; first compound 2.53 µM
  relative viability: 0.564
NCI-H1975; first compound 8 µM
  relative viability: 0.744
HCC-78; first compound 0.08 µM
  relative viability: 0.506
HCC-78; first compound 0.253 µM
  relative viability: 0.458
HCC-78; first compound 0.8 µM
  relative viability: 0.427
HCC-78; first compound 2.53 µM
  relative viability: 0.417
HCC-78; first compound 8 µM
  relative viability: 0.487
NCI-H358; first compound 0.08 µM
  relative viability: 0.135
NCI-H358; first compound 0.253 µM
  relative viability: 0.144
NCI-H358; first compound 0.8 µM
  relative viability: 0.13
NCI-H358; first compound 2.53 µM
  relative viability: 0.134
NCI-H358; first compound 8 µM
  relative viability: 0.152
NCI-H441; first compound 0.08 µM
  relative viability: 0.189
NCI-H441; first compound 0.253 µM
  relative viability: 0.187
NCI-H441; first compound 0.8 µM
  relative viability: 0.215
NCI-H441; first compound 2.53 µM
  relative viability: 0.203
NCI-H441; first compound 8 µM
  relative viability: 0.18
NCI-H2023; first compound 0.08 µM
  relative viability: 0.379
NCI-H2023; first compound 0.253 µM
  relative viability: 0.407
NCI-H2023; first compound 0.8 µM
  relative viability: 0.407
NCI-H2023; first compound 2.53 µM
  relative viability: 0.369
NCI-H2023; first compound 8 µM
  relative viability: 0.291
NCI-H1666; first compound 0.08 µM
  relative viability: 0.638
NCI-H1666; first compound 0.253 µM
  relative viability: 0.673
NCI-H1666; first compound 0.8 µM
  relative viability: 0.679
NCI-H1666; first compound 2.53 µM
  relative viability: 0.659
NCI-H1666; first compound 8 µM
  relative viability: 0.601
LXF-289; first compound 0.08 µM
  relative viability: 0.61
LXF-289; first compound 0.253 µM
  relative viability: 0.603
LXF-289; first compound 0.8 µM
  relative viability: 0.609
LXF-289; first compound 2.53 µM
  relative viability: 0.619
LXF-289; first compound 8 µM
  relative viability: 0.642
EMC-BAC-2; first compound 0.08 µM
  relative viability: 0.511
EMC-BAC-2; first compound 0.253 µM
  relative viability: 0.529
EMC-BAC-2; first compound 0.8 µM
  relative viability: 0.536
EMC-BAC-2; first compound 2.53 µM
  relative viability: 0.538
EMC-BAC-2; first compound 8 µM
  relative viability: 0.543
EPLC-272H; first compound 0.08 µM
  relative viability: 0.34
EPLC-272H; first compound 0.253 µM
  relative viability: 0.318
EPLC-272H; first compound 0.8 µM
  relative viability: 0.321
EPLC-272H; first compound 2.53 µM
  relative viability: 0.287
EPLC-272H; first compound 8 µM
  relative viability: 0.285
